According to US6890954B1, “Uses of 2-bromopalmitate in the treatment of autoimmune disease” (priority 1999, dated 2005):

Assays:
Assay type in all cases: cell-based
[1] = tested on: Fyn; assay: Subcellular fractionation (P100/S100) of Fyn in COS-1 cells
Protocol: Each 60 mm plate of Fyn transfected COS-1 cells was starved for […] in DMEM containing 2.5% FBS and 0.5% defatted BSA with or without 100 μM 2-bromopalmitate. After overnight culture at 37° C., the cells were fractionated into P100 and S100 fractions, immunoprecipitated with anti-Fyn antibody, subjected to SDS-PAGE, and immunoblotted with anti-Fyn antibody as previously described (9,12,13).
For analysis of newly synthesized Fyn, cells were cultured overnight as descibed above, then starved for 1 hr in DMEM minus methionine and cysteine containing 2% dialyzed FBS, 0.5% defatted BSA with or without 100 μM 2-bromopalmitate. Cells were labeled for 5 minutes with Trans^35S-Label (ICN, Irvine, Calif.), then fractionated as described above. Gels were treated for 20 minutes with 1M salicylic acid prior to drying. The Gαo(10)-Fyn chimera was labeled for 5 min and GAP-43 Fyn chimera was labeled for 2 hours and fractionated according to the above conditions.
Newly synthesized Fyn becomes plasma membrane bound within 5 minutes after biosynthesis (12). The rapid membrane targeting is dependent on dual fatty acylation of Fyn with myristate and palmitate. The effect of 2-bromopalmitate on the ability of newly synthesized Fyn to localize to membranes was next examined. Transfected COS-1 cells were incubated for 12-16 hours with or without 100 μM 2-bromopalmitate. […]

[2] = target: T1, Fyn (Homo sapiens, UniProt P06241); assay: Fyn fatty acylation (IC13/IC16) in transfected Jurkat T cells; details: 100 μM, 3 hours preincubation
T1 construct: expressed in transfected cells; host or cells: COS-1
Protocol: The syntheses of 13-[^125I]-iodotridecanoic acid (IC13)or 16-[^125I]-iodohexanoic acid (IC16) were carried out as described previously (39). Cell labeling was carried out as described (12,13) with modifications. Briefly, each 60 mm plate of Fyn transfected COS-1 cells was incubated O/N in DMEM containing 2.5% FBS, 0.5% defatted BSA (Sigma) with or without 100 μM 2-bromopalmitate or 50 μM polyunsaturated fatty acid. Prior to labeling, the cells were incubated for 1 hr with 1 ml of DMEM containing 2% dialyzed FBS, then labeled for 4 hours with 25-50 μCi IC13 or IC16 in DMEM containing 2% dialyzed FBS, 0.5% defatted BSA with or without 2-bromopalmitate or polyunsaturated fatty acid. Labeled cells were washed three times with cold STE (100 mM NaCl, 10 mM Tris pH 7.4, 1 mM EDTA) and lysed in 0.6 ml of cold RIPA buffer containing protease inhibitors (10 μg/ml each of benzamidine, AEBSF, TPCK and TLCK, 1.5 μg/ml each of Leupeptin, Pepstatin A and Aprotinin). Lysates were clarified at 100,000×g for 15 min at 4° C. in a Beckman TL-100 ultracentrifuge. […] Gels were dried between cellophane and analyzed by phosphorimaging after 12-36 hours exposure. […]
The Src family kinases Fyn and Lck play critical roles in T cell receptor (TCR) mediated signaling. […] Total protein levels were monitored by immunoprecipitation followed by immunoblotting with anti-Fyn antibody.

[3] = tested on: Fyn; assay: DRM (raft) localization in activated Jurkat cells, sucrose gradient: Fyn; details: 100 μM 3 hours, OKT3 activated, control 88%
Protocol: Isolation of Triton X-100 resistant and soluble fractions was carried out as described previously (12). Isolation of detergent resistant microdomains by sucrose gradients were carried out as follows (19): Jurkat cells (5×10^7) were treated with 2-bromopalmitate, activated with OKT3 mAb as described above, and lysed in 1 ml lysis buffer (25 mM MES pH 6.5, 150 mM NaCl, 0.5% Triton X-100, 1 mM Na3VO4) supplemented with protease inhibitors for 30 minutes at 0° C. After homogenizing 10 times with a loose fit Dounce homogenizer, lysates were mixed with 1 ml 85% sucrose in MBS (25 mM MES pH 6.5, 150 mM NaCl), and overlayered with 6 ml 30% sucrose in MBS, then with 4 ml 5% sucrose in MBS. Following centrifugation for 16 hours at 145,000 g in an SW40 rotor, 1 ml fractions were collected and analyzed by PAGE and immunoblotting with anti-Fyn, anti-LAT, or anti-Lck antibodies.
The ability of 2-bromopalmitate to inhibit localization of palmitoylated proteins to detergent resistant microdomains in activated Jurkat cells was examined next. Cells were either left untreated or treated with 100 μM 2-bromopalmitate for 3 hours, washed, resuspended in serum-free media, and the TCR was activated with OKT3 mAb. Activated cells were extracted with Triton X-100 containing buffer. […] Each fraction was analyzed by immunoblotting with specific antibodies. […]

T1 sequence (P06241 whole entry, species assumed): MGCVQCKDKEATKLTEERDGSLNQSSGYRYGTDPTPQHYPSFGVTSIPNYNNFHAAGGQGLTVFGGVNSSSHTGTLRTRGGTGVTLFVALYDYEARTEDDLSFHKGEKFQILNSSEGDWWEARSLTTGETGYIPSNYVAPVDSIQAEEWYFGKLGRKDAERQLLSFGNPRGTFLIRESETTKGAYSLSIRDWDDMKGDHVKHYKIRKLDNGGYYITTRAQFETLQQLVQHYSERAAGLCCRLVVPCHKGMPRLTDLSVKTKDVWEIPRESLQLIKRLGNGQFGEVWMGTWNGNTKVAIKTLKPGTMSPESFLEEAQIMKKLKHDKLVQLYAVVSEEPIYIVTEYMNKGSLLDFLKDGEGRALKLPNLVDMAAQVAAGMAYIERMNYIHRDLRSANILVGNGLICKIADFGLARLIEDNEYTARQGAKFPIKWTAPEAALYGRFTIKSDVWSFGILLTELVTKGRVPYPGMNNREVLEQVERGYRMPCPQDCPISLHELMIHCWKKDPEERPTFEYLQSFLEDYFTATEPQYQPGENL

Q: Which “newly synthesized Fyn remaining cytosolic” value ([1]; COS-1, 100 μM for 12-16 hours, 5 min 35S label, untreated 90% membrane bound) does the source give for `CCCCCCCCCCCCCCC(Br)C(=O)O` (centres unmarked) [2-bromopalmitate] here?
A: Its value is 50%.

Q: And the “steady-state Fyn fractionating in the cytosol” value ([1]; COS-1, 100 μM, Western blot, data not shown)?
A: The value was 50%.

Q: And the “Fyn myristoylation inhibited relative to untreated controls” value ([2]; IC13)?
A: The value was 75%.

Q: What about the “Fyn palmitoylation inhibited relative to untreated controls” value ([2]; IC16) of the same compound?
A: Its value is 90%.

Q: And the “Fyn found in the rafts” value [3]?
A: The value was 59%.
